Assay results: US10004701B2, “Methods and compositions for treating infection” (UNIVERSITY OF ROCHESTER, priority 2012, dated 2018)
Structures can show the parent of a compound that is named as a salt. Where two headings read alike, the source gives them in different places.

What was measured:
Assay in all cases: AK assay 384-well format, Prestwick library screening
[1] = system: S. aureus strain USA300-0114; type: cell-based, Staphylococcus aureus; details: 50 μM final drug concentration; for fold induction at 50 µM: Staphylococcus aureus, USA300, 3 h
[2] = system: A. baumannii strain 98-37-09; type: cell-based, Acinetobacter baumannii; details: 50 μM final drug concentration; for fold induction at 50 µM: Acinetobacter baumannii, 983709, 3 h
E. cloacae = type: cell-based, Enterobacter cloacae; details: 50 μM final drug concentration; for fold induction at 50 µM: Enterobacter cloacae, 3 h
P. aeruginosa = type: cell-based, Pseudomonas aeruginosa; details: 50 μM final drug concentration; for fold induction at 50 µM: Pseudomonas aeruginosa, 3 h
E. coli = type: cell-based, Escherichia coli; details: 50 μM final drug concentration; for fold induction at 50 µM: Escherichia coli, 3 h
K. pneumoniae = type: cell-based, Klebsiella pneumoniae; details: 50 μM final drug concentration; for fold induction at 50 µM: Klebsiella pneumoniae, 3 h
E. faecium = type: cell-based, Enterococcus faecium; details: 50 μM final drug concentration; for fold induction at 50 µM: Enterococcus faecium, 3 h
[3] = planktonic, cutoff for positive 3-fold increase, read-out: AK-based Prestwick Library Screening Results, S. aureus (fold increase in extracellular AK activity)
[4] = planktonic, cutoff for positive 3-fold increase, read-out: AK-based Prestwick Library Screening Results, A. baumannii (fold increase in extracellular AK activity)
[5] = planktonic, cutoff for positive 3-fold increase, read-out: AK-based Prestwick Library Screening Results, E. cloacae (fold increase in extracellular AK activity)
[6] = planktonic, cutoff for positive 3-fold increase, read-out: AK-based Prestwick Library Screening Results, P. aeruginosa (fold increase in extracellular AK activity)
[7] = planktonic, cutoff for positive 3-fold increase, read-out: AK-based Prestwick Library Screening Results, K. pneumoniae (fold increase in extracellular AK activity)
[8] = planktonic, cutoff for positive 3-fold increase, read-out: AK-based Prestwick Library Screening Results, E. faecium (fold increase in extracellular AK activity)
[9] = 384-well format, cutoff for positive-scoring molecules 3-fold increase, read-out: AK-based Prestwick Library Screening Results, S. aureus (increase in extracellular AK activity)
[10] = 384-well format, cutoff for positive-scoring molecules 3-fold increase, read-out: AK-based Prestwick Library Screening Results, A. baumannii (increase in extracellular AK activity)
[11] = 384-well format, cutoff for positive-scoring molecules 3-fold increase, read-out: AK-based Prestwick Library Screening Results, E. cloacae (increase in extracellular AK activity)
[12] = 384-well format, cutoff for positive-scoring molecules 3-fold increase, read-out: AK-based Prestwick Library Screening Results, P. aeruginosa (increase in extracellular AK activity)
[13] = 384-well format, cutoff for positive-scoring molecules 3-fold increase, read-out: AK-based Prestwick Library Screening Results, E. coli (increase in extracellular AK activity)
[14] = 384-well format, cutoff for positive-scoring molecules 3-fold increase, read-out: AK-based Prestwick Library Screening Results, K. pneumoniae (increase in extracellular AK activity)
[15] = 384-well format, cutoff for positive-scoring molecules 3-fold increase, read-out: AK-based Prestwick Library Screening Results, E. faecium (increase in extracellular AK activity)
[16] = cutoff for positive-scoring molecules 3-fold increase
[17] = 384-well format, […], read-out: AK-based Prestwick Library Screening Results, S. aureus (increase in extracellular AK activity)
[18] = 384-well format, […], read-out: AK-based Prestwick Library Screening Results, A. baumannii (increase in extracellular AK activity)
[19] = 384-well format, […], read-out: AK-based Prestwick Library Screening Results, E. cloacae (increase in extracellular AK activity)
[20] = 384-well format, […], read-out: AK-based Prestwick Library Screening Results, P. aeruginosa (increase in extracellular AK activity)
[21] = 384-well format, […], read-out: AK-based Prestwick Library Screening Results, E. coli (increase in extracellular AK activity)
[22] = 384-well format, […], read-out: AK-based Prestwick Library Screening Results, K. pneumoniae (increase in extracellular AK activity)
[23] = 384-well format, […], read-out: AK-based Prestwick Library Screening Results, E. faecium (increase in extracellular AK activity)

CN1CCC(OC(c2ccccc2)c2ccccc2)CC1 [Diphenylpyraline hydrochloride]
fold induction at 50 µM ([1]; cutoff for positive-scoring molecules 3-fold increase, read-out: AK-based Prestwick Library Screening Results, S. aureus (fold increase in extracellular AK activity)): 1.2 | fold induction at 50 µM ([2]; cutoff for positive-scoring molecules 3-fold increase, read-out: AK-based Prestwick Library Screening Results, A. baumannii (fold increase in extracellular AK activity)): 1.3 | fold induction at 50 µM (E. cloacae; cutoff for positive-scoring molecules 3-fold increase, read-out: AK-based Prestwick Library Screening Results, E. cloacae (fold increase in extracellular AK activity)): 1.4 | fold induction at 50 µM (P. aeruginosa; cutoff for positive-scoring molecules 3-fold increase, read-out: AK-based Prestwick Library Screening Results, P. aeruginosa (fold increase in extracellular AK activity)): 1.1 | fold induction at 50 µM (E. coli; cutoff for positive-scoring molecules 3-fold increase, read-out: AK-based Prestwick Library Screening Results, E. coli (fold increase in extracellular AK activity)): 1.3 | fold induction at 50 µM (K. pneumoniae; cutoff for positive-scoring molecules 3-fold increase, read-out: AK-based Prestwick Library Screening Results, K. pneumoniae (fold increase in extracellular AK activity)): 1 | fold induction at 50 µM (E. faecium; cutoff for positive-scoring molecules 3-fold increase, read-out: AK-based Prestwick Library Screening Results, E. faecium (fold increase in extracellular AK activity)): 1.1

CNCC(O)c1ccc(OC(=O)C(C)(C)C)c(OC(=O)C(C)(C)C)c1 (stereo not shown) [Dipivefrin hydrochloride]
fold induction at 50 µM [1, 3]: 1.2 | fold induction at 50 µM [2, 4]: 1.4 | fold induction at 50 µM (E. cloacae; [5]): 1.6 | fold induction at 50 µM (P. aeruginosa; [6]): 1.3 | fold induction at 50 µM (E. coli; planktonic, […], read-out: AK-based Prestwick Library Screening Results, E. coli (fold increase in extracellular AK activity)): 1.4 | fold induction at 50 µM (K. pneumoniae; [7]): 1.3 | fold induction at 50 µM (E. faecium; [8]): 1

Cn1c(=O)c2c(ncn2CC(O)CO)n(C)c1=O (stereo not shown) [Diprophylline]
fold induction at 50 µM [1, 9]: 0.7 | fold induction at 50 µM [2, 10]: 0.8 | fold induction at 50 µM (E. cloacae; [11]): 1.1 | fold induction at 50 µM (P. aeruginosa; [12]): 0.7 | fold induction at 50 µM (E. coli; [13]): 1 | fold induction at 50 µM (K. pneumoniae; [14]): 0.6 | fold induction at 50 µM (E. faecium; [15]): 0.9

OCCN(CCO)c1nc(N2CCCCC2)c2nc(N(CCO)CCO)nc(N3CCCCC3)c2n1 [Dipyridamole]
fold induction at 50 µM ([1]; planktonic S. aureus, 384-well, cutoff for positive-scoring molecules 3-fold increase, read-out: AK-based Prestwick Library Screening Results: S. aureus (increase in extracellular AK activity)): 0.8 | fold induction at 50 µM ([2]; planktonic A. baumannii, 384-well, cutoff for positive-scoring molecules 3-fold increase, read-out: AK-based Prestwick Library Screening Results: A. baumannii (increase in extracellular AK activity)): 1.2 | fold induction at 50 µM (E. cloacae; planktonic E. cloacae, 384-well, cutoff for positive-scoring molecules 3-fold increase, read-out: AK-based Prestwick Library Screening Results: E. cloacae (increase in extracellular AK activity)): 1.4 | fold induction at 50 µM (P. aeruginosa; planktonic P. aeruginosa, 384-well, cutoff for positive-scoring molecules 3-fold increase, read-out: AK-based Prestwick Library Screening Results: P. aeruginosa (increase in extracellular AK activity)): 1.1 | fold induction at 50 µM (E. coli; planktonic E. coli, 384-well, cutoff for positive-scoring molecules 3-fold increase, read-out: AK-based Prestwick Library Screening Results: E. coli (increase in extracellular AK activity)): 1.3 | fold induction at 50 µM (K. pneumoniae; planktonic K. pneumoniae, 384-well, cutoff for positive-scoring molecules 3-fold increase, read-out: AK-based Prestwick Library Screening Results: K. pneumoniae (increase in extracellular AK activity)): 0.9 | fold induction at 50 µM (E. faecium; planktonic E. faecium, 384-well, cutoff for positive-scoring molecules 3-fold increase, read-out: AK-based Prestwick Library Screening Results: E. faecium (increase in extracellular AK activity)): 0.9

Cc1c(N(C)CS(=O)(=O)[O-])c(=O)n(-c2ccccc2)n1C.[Na+] [Dipyrone]
AK-based Prestwick Library Screening Results, S. aureus (fold increase in extracellular AK activity) [1, 16]: 1.4 | AK-based Prestwick Library Screening Results, A. baumannii (fold increase in extracellular AK activity) [2, 16]: 1.1 | AK-based Prestwick Library Screening Results, E. cloacae (fold increase in extracellular AK activity) (E. cloacae; [16]): 1.4 | AK-based Prestwick Library Screening Results, P. aeruginosa (fold increase in extracellular AK activity) (P. aeruginosa; [16]): 1.1 | AK-based Prestwick Library Screening Results, E. coli (fold increase in extracellular AK activity) (E. coli; [16]): 1.1 | AK-based Prestwick Library Screening Results, K. pneumoniae (fold increase in extracellular AK activity) (K. pneumoniae; [16]): 1.1 | AK-based Prestwick Library Screening Results, E. faecium (fold increase in extracellular AK activity) (E. faecium; [16]): 1.0

CC[C@H]1OC(=O)[C@H](C)[C@@H](O[C@H]2C[C@@](C)(OC)[C@@H](O)[C@H](C)O2)[C@H](C)[C@@H](O[C@@H]2O[C@H](C)C[C@H](N(C)C)[C@H]2O)[C@](C)(O)C[C@@H](C)[C@@H]2N[C@@H](COCCOC)O[C@H]([C@H]2C)[C@]1(C)O [Dirithromycin]
fold induction at 50 µM [1, 3]: 2.1 | fold induction at 50 µM [2, 4]: 1.8 | fold induction at 50 µM (E. cloacae; [5]): 1.5 | fold induction at 50 µM (P. aeruginosa; [6]): 0.9 | fold induction at 50 µM (E. coli; planktonic, cutoff for positive 3-fold increase, read-out: AK-based Prestwick Library Screening Results, E. coli (fold increase in extracellular AK activity)): 1.1 | fold induction at 50 µM (K. pneumoniae; [7]): 1.2 | fold induction at 50 µM (E. faecium; [8]): 1.2

CC(C)N(CCC(C(N)=O)(c1ccccc1)c1ccccn1)C(C)C (stereo not shown) [Disopyramide]
fold induction at 50 µM [1, 9]: 2.7 | fold induction at 50 µM [2, 10]: 0.9 | fold induction at 50 µM (E. cloacae; [11]): 1 | fold induction at 50 µM (P. aeruginosa; [12]): 0.9 | fold induction at 50 µM (E. coli; [13]): 0.9 | fold induction at 50 µM (K. pneumoniae; [14]): 0.6 | fold induction at 50 µM (E. faecium; [15]): 0.9

CCN(CC)C(=S)SSC(=S)N(CC)CC [Disulfiram]
fold induction at 50 µM [1, 17]: 1.1 | fold induction at 50 µM [2, 18]: 1 | fold induction at 50 µM (E. cloacae; [19]): 0.7 | fold induction at 50 µM (P. aeruginosa; [20]): 0.6 | fold induction at 50 µM (E. coli; [21]): 0.9 | fold induction at 50 µM (K. pneumoniae; [22]): 0.6 | fold induction at 50 µM (E. faecium; [23]): 1

C[C@]12N[C@H](Cc3ccccc31)c1ccccc12 [Dizocilpine maleate]
fold induction at 50 µM [1, 17]: 0.7 | fold induction at 50 µM [2, 18]: 0.8 | fold induction at 50 µM (E. cloacae; [19]): 1 | fold induction at 50 µM (P. aeruginosa; [20]): 0.9 | fold induction at 50 µM (E. coli; [21]): 0.9 | fold induction at 50 µM (K. pneumoniae; [22]): 0.7 | fold induction at 50 µM (E. faecium; [23]): 0.9

CC(CCc1ccc(O)cc1)NCCc1ccc(O)c(O)c1 (stereo not shown) [Dobutamine hydrochloride]
fold induction at 50 µM ([1]; planktonic S. aureus, cutoff for positive-scoring molecules 3-fold increase, read-out: AK-based Prestwick Library Screening Results, S. aureus (increase in extracellular AK activity)): 0.1 | fold induction at 50 µM ([2]; planktonic A. baumannii, cutoff for positive-scoring molecules 3-fold increase, read-out: AK-based Prestwick Library Screening Results, A. baumannii (increase in extracellular AK activity)): 0.7 | fold induction at 50 µM (E. cloacae; planktonic E. cloacae, cutoff for positive-scoring molecules 3-fold increase, read-out: AK-based Prestwick Library Screening Results, E. cloacae (increase in extracellular AK activity)): 1.1 | fold induction at 50 µM (P. aeruginosa; planktonic P. aeruginosa, cutoff for positive-scoring molecules 3-fold increase, read-out: AK-based Prestwick Library Screening Results, P. aeruginosa (increase in extracellular AK activity)): 0.6 | fold induction at 50 µM (E. coli; planktonic E. coli, cutoff for positive-scoring molecules 3-fold increase, read-out: AK-based Prestwick Library Screening Results, E. coli (increase in extracellular AK activity)): 0.8 | fold induction at 50 µM (K. pneumoniae; planktonic K. pneumoniae, cutoff for positive-scoring molecules 3-fold increase, read-out: AK-based Prestwick Library Screening Results, K. pneumoniae (increase in extracellular AK activity)): 0.8 | fold induction at 50 µM (E. faecium; planktonic E. faecium, cutoff for positive-scoring molecules 3-fold increase, read-out: AK-based Prestwick Library Screening Results, E. faecium (increase in extracellular AK activity)): 0.8
